The values below come from patent publication US8658604B2, “Template-fixed beta-hairpin peptidomimetics with protease inhibitory activity” (Polyphor Ltd, priority 2005, dated 2014).

Structures are written as SMILES. Where two headings read alike, the source gives them in different places. Where a SMILES comes first, the peptide text is derived from it.

One data set has as its system HELA cells (Acc57). The data set can be described thus: Cytotoxicity assay (MTT reduction), HELA cells. Type of data set: cell-based. The note with it: Hela cells. The method in brief:
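HeLa cells were grown for 24 h, then exposed to peptides at 12.5, 25 and 50 μM in triplicate for 48 h at 37 °C. MTT reduction was read at 595 nm and growth % calculated relative to time-zero wells. LC50 interpolated by linear trend at −50% growth, GI50 at 50%.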
Background: Tetrazolium dyes change colour on reduction, which living cells bring about.

Data set [1] concerns human red blood cells (hRBC). The data set can be described thus: Hemolysis.
Procedure: The peptides were tested for their hemolytic activity against human red blood cells (hRBC). Fresh hRBC were washed three times with phosphate buffered saline (PBS) by centrifugation for 10 min at 2000×g. Peptides at a concentration of 100 μM were incubated with 20% v/v hRBC for 1 hour at 37° C. The final erythrocyte concentration was approximately 0.9×10^9 cells per ml. A value of 0% and, respectively, 100% cell lysis was determined by incubation of the hRBC in the presence of PBS alone and, respectively, 0.1% Triton X-100 in H2O. […] The 100% lysis value (OD540H20) gave an OD540 of approximately 1.3-1.8. Percent hemolysis was calculated as follows: (OD540peptide/OD540H20)×100%.
In data set [2] the target is Trypsin, from human pancreas (Homo sapiens, UniProt P07477). The data set can be described thus: Enzymatic assay, trypsin. Particulars: at 100 μM.
The next data set deals with T1, Chymase, from human skin (Homo sapiens, UniProt P23946).
T1 sequence (P23946 22-247): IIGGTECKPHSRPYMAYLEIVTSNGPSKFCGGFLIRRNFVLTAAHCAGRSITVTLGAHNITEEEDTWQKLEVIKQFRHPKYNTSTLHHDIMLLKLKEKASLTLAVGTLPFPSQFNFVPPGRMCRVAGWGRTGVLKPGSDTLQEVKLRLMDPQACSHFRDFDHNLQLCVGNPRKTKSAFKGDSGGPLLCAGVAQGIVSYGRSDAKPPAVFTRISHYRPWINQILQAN
The data set can be described thus: Enzymatic assay, chymase.

In data set [3] the target is T2, Elastase from human neutrophils (Homo sapiens, UniProt P08246).
T2 sequence (P08246 30-267): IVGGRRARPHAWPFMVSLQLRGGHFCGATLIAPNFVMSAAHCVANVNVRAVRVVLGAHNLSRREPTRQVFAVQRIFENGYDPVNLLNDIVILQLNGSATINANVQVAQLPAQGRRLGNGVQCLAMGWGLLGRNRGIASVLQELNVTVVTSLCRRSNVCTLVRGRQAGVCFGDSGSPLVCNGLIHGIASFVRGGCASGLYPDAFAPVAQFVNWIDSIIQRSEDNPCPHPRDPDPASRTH
Nature of the data set: Enzymatic assay, elastase.

The target of data set [4] is Thrombin, from Human Plasma (Homo sapiens, UniProt P00734). The data set can be described thus: Enzymatic assay, thrombin.
The test system of data set [5] is Tryptase, from human lung. Nature of the data set: Enzymatic assay, tryptase. Particulars: at 100 μM.
Data set [6] addresses Urokinase from human urine (Homo sapiens, UniProt P00749). Nature of the data set: Enzymatic assay, urokinase.
The target in data set [7] is T3, CathepsinG, from human neutrophils (Homo sapiens, UniProt P08311).
T3 sequence (P08311 21-244): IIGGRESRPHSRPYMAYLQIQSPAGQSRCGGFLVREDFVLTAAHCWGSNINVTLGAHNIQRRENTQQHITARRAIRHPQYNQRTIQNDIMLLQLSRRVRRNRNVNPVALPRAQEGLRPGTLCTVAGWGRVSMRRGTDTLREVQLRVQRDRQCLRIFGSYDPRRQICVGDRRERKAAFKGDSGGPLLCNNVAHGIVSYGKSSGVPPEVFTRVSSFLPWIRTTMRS
Nature of the data set: Enzymatic assay, cathepsin G.

Data set [8] has as its target Chymotrypsin, from human pancreas (Homo sapiens, UniProt P17538). The data set can be described thus: Enzymatic assay, chymotrypsin. Particulars: at 100 μM.
For data set [9], the target named is Coagulation Factor Xa, from uman plasma (Homo sapiens, UniProt P00742). The data set can be described thus: Enzymatic assay, coagulation factor Xa.
Coagulation Factor Xa, from uman plasma, sequence (P00742 235-488 limits assumed): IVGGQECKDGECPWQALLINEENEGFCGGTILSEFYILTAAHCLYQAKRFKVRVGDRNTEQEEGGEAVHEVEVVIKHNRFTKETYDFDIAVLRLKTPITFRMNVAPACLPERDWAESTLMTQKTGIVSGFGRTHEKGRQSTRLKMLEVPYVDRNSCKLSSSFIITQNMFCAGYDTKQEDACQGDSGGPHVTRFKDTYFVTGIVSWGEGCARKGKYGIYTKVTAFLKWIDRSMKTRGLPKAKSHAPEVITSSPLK
Coagulation Factor Xa, from uman plasma, sequence (P00742 41-179 limits assumed): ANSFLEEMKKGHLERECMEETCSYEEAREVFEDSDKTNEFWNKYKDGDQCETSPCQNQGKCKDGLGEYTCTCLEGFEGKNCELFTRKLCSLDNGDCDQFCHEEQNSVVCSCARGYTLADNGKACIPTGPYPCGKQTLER

Chymotrypsin, from human pancreas, sequence (P17538 19-263): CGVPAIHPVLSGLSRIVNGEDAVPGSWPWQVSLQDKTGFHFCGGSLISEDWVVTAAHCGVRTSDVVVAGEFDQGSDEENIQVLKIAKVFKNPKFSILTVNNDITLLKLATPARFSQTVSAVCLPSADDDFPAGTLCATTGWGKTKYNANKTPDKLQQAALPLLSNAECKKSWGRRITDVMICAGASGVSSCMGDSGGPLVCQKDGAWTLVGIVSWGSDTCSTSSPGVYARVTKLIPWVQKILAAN

One may read the IC50 as the concentration that inhibits the measured activity by half. With `CC[C@H](C)[C@@H]1NC(=O)[C@@H]2CCCN2C(=O)[C@@H]2CCCN2C(=O)[C@H](CC(=O)O)NC(=O)[C@H](CO)NC(=O)[C@H](CCCCN)NC(=O)[C@H]([C@@H](C)O)NC(=O)[C@@H]2CSSC[C@H](NC1=O)C(=O)N[C@@H]([C@@H](C)O)C(=O)N1CCC[C@@H]1C(=O)N1CCC[C@H]1C(=O)N[C@@H](C1CCCCC1)C(=O)N2` [Ex. 38] (HELM PEPTIDE1{[O=C([C@@H](N[*:1])C1CCCCC1)[*:2]].C.T.K.S.D.P.P.I.C.T.[dP].P}$PEPTIDE1,PEPTIDE1,2:R3-10:R3|PEPTIDE1,PEPTIDE1,1:R1-13:R2$$$V2.0), the Cytotoxicity LC50/GI50 Hela cells in the data set with HELA cells (Acc57) came to 100 µM. In addition, the “Hemolysis at 100 μM %” value in data set [1] is listed as 0%. Further, the “Trypsin at 100 μM %” value in data set [2] came to 96%. Further, the “Chymase at 100 μM %” value on Chymase, from human skin was 1%. Besides, the IC50 in [3] (Elastase IC50) is more than 100 µM; in data set [7] (Cathepsin G IC50) it was 0.031 µM. Further, in [4], the “Thrombin at 100 μM %” value was found to be 0%. In addition, the “Tryptase at 100 μM %” value in data set [5] is reported as 11%. Moreover, in data set [6], the “Urokinase at 100 μM %” value was 1%. Further, the “Chymotrypsin at 100 μM %” value in data set [8] is 4%. In data set [9], the “FXa at 100 μM %” value was determined as 0%.

As for `CC[C@H](C)[C@@H]1NC(=O)[C@@H]2CCCN2C(=O)[C@@H]2CCCN2C(=O)[C@H](CC(=O)O)NC(=O)[C@H](CO)NC(=O)[C@H](CCCCN)NC(=O)[C@H]([C@@H](C)O)NC(=O)[C@@H]2CSSC[C@H](NC1=O)C(=O)N[C@@H](Cc1ccc(O)cc1)C(=O)N1CCC[C@@H]1C(=O)N1CCC[C@H]1C(=O)N[C@@H](C1CCCCC1)C(=O)N2` [Ex. 40] (HELM PEPTIDE1{[O=C([C@@H](N[*:1])C1CCCCC1)[*:2]].C.T.K.S.D.P.P.I.C.Y.[dP].P}$PEPTIDE1,PEPTIDE1,2:R3-10:R3|PEPTIDE1,PEPTIDE1,1:R1-13:R2$$$V2.0), in the data set with HELA cells (Acc57), the Cytotoxicity LC50/GI50 Hela cells was 97 µM. Also, the “Hemolysis at 100 μM %” value in [1] is 0.1%. Further, the “Trypsin at 100 μM %” value in [2] was 94%. At Chymase, from human skin, the “Chymase at 100 μM %” value came out at 8%. The IC50 was more than 44.9 µM in [3] (Elastase IC50) and 0.025 µM in data set [7] (Cathepsin G IC50). Further, the “Thrombin at 100 μM %” value in data set [4] was 1%. For the same molecule, the “Tryptase at 100 μM %” value in [5] is recorded as 33%. The “Urokinase at 100 μM %” value in data set [6] amounted to 10%. Moreover, the “Chymotrypsin at 100 μM %” value in [8] stood at 19%. Further, the “FXa at 100 μM %” value in data set [9] is on record as 3%.

For the molecule `CCCC[C@@H]1NC(=O)[C@H]([C@@H](C)O)NC(=O)[C@@H]2CSSC[C@H](NC(=O)[C@H]([C@@H](C)CC)NC(=O)[C@@H]3CCCN3C(=O)[C@@H]3CCCN3C(=O)[C@H](CC(=O)O)NC(=O)[C@H](CO)NC1=O)C(=O)N[C@@H](Cc1ccc(O)cc1)C(=O)N1CCC[C@@H]1C(=O)N1CCC[C@H]1C(=O)N[C@@H](Cc1ccccc1)C(=O)N2` [Ex. 60] (HELM PEPTIDE1{F.C.T.[Nle].S.D.P.P.I.C.Y.[dP].P}$PEPTIDE1,PEPTIDE1,2:R3-10:R3|PEPTIDE1,PEPTIDE1,1:R1-13:R2$$$V2.0), the Cytotoxicity LC50/GI50 Hela cells in the data set with HELA cells (Acc57) was found to be 51 µM. Besides, the “Hemolysis at 100 μM %” value in data set [1] is given as 0%. Further, the “Trypsin at 100 μM %” value in data set [2] is given as 90%. Further, the “Chymase at 100 μM %” value at Chymase, from human skin turned out to be 60%. Further, the IC50 in [3] (read-out: Elastase IC50) was more than 100 µM; in data set [7] (read-out: Cathepsin G IC50) it was 0.038 µM. The “Thrombin at 100 μM %” value in [4] turned out to be 0%. In addition, the “Tryptase at 100 μM %” value in data set [5] amounted to 29.4%. In data set [6], the “Urokinase at 100 μM %” value was found to be 9%. In addition, in data set [8], the “Chymotrypsin at 100 μM %” value stood at 4%. Moreover, the “FXa at 100 μM %” value in [9] is reported as 11%.

`CCCC[C@@H]1NC(=O)[C@@H]2CCCN2C(=O)[C@@H]2CCCN2C(=O)[C@H](CC(=O)O)NC(=O)[C@H](CO)NC(=O)[C@H](CCCCN)NC(=O)[C@H]([C@@H](C)O)NC(=O)[C@@H]2CSSC[C@H](NC1=O)C(=O)N[C@@H](CCCNC(=N)N)C(=O)N1CCC[C@@H]1C(=O)N1CCC[C@H]1C(=O)N[C@@H]([C@@H](C)CC)C(=O)N2` [Ex. 19] (HELM PEPTIDE1{I.C.T.K.S.D.P.P.[Nle].C.R.[dP].P}$PEPTIDE1,PEPTIDE1,2:R3-10:R3|PEPTIDE1,PEPTIDE1,1:R1-13:R2$$$V2.0): the Cytotoxicity LC50/GI50 Hela cells in the data set on HELA cells (Acc57) amounted to 100 µM. The “Hemolysis at 100 μM %” value in [1] was determined as 0%. Besides, the “Trypsin at 100 μM %” value in data set [2] amounted to 94.0%. The “Chymase at 100 μM %” value at Chymase, from human skin amounted to 26.9%. In addition, the IC50 in data set [3] (Elastase IC50) is more than 100 µM; in data set [7] (Cathepsin G IC50) it was 0.041 µM. Besides, the “Thrombin at 100 μM %” value in data set [4] came to 11%. Moreover, the “Tryptase at 100 μM %” value in data set [5] is given as 85.2%. The “Urokinase at 100 μM %” value in [6] stood at 4%. The “Chymotrypsin at 100 μM %” value in data set [8] is listed as 0%. Also, the “FXa at 100 μM %” value in [9] was found to be 32%.

On to `CC[C@H](C)[C@@H]1NC(=O)[C@@H]2CCCN2C(=O)[C@@H]2CCCN2C(=O)[C@H](CC(=O)O)NC(=O)[C@H](CO)NC(=O)[C@H](CCCCN)NC(=O)[C@H]([C@@H](C)O)NC(=O)[C@@H]2CSSC[C@H](NC1=O)C(=O)N[C@@H](CC(N)=O)C(=O)N1CCC[C@@H]1C(=O)N1CCC[C@H]1C(=O)N[C@@H](Cc1ccccc1)C(=O)N2` [Ex. 3] (HELM PEPTIDE1{F.C.T.K.S.D.P.P.I.C.N.[dP].P}$PEPTIDE1,PEPTIDE1,2:R3-10:R3|PEPTIDE1,PEPTIDE1,1:R1-13:R2$$$V2.0), for which, in the data set with HELA cells (Acc57), the Cytotoxicity LC50/GI50 Hela cells was 100 µM. For the same molecule, the “Hemolysis at 100 μM %” value in data set [1] is 0%. The “Trypsin at 100 μM %” value in data set [2] came to 92%. In addition, at Chymase, from human skin, the “Chymase at 100 μM %” value stood at 1%. In addition, the IC50 in data set [3] (Elastase IC50) was more than 100 µM; in data set [7] (Cathepsin G IC50), 0.051 µM. Also, in [4], the “Thrombin at 100 μM %” value is 0%. In addition, the “Tryptase at 100 μM %” value in [5] stood at 68%. Further, in data set [6], the “Urokinase at 100 μM %” value is 4%. The “Chymotrypsin at 100 μM %” value in data set [8] was determined as 0%. For the same molecule, the “FXa at 100 μM %” value in data set [9] is on record as 4%.

On to `CC[C@H](C)[C@@H]1NC(=O)[C@@H]2CCCN2C(=O)[C@@H]2CCCN2C(=O)[C@H](CC(=O)O)NC(=O)[C@H](CO)NC(=O)[C@H](CCCCN)NC(=O)[C@H]([C@@H](C)O)NC(=O)[C@@H]2CSSC[C@H](NC1=O)C(=O)N[C@@H](CO)C(=O)N1CCC[C@@H]1C(=O)N1CCC[C@H]1C(=O)N[C@@H](Cc1ccccc1)C(=O)N2` [Ex. 4] (HELM PEPTIDE1{F.C.T.K.S.D.P.P.I.C.S.[dP].P}$PEPTIDE1,PEPTIDE1,2:R3-10:R3|PEPTIDE1,PEPTIDE1,1:R1-13:R2$$$V2.0), for which the Cytotoxicity LC50/GI50 Hela cells in the data set with HELA cells (Acc57) was determined as 100 µM. Further, the “Hemolysis at 100 μM %” value in data set [1] is 0%. In [2], the “Trypsin at 100 μM %” value came to 96%. For the same molecule, on Chymase, from human skin, the “Chymase at 100 μM %” value stood at 0%. The IC50 was more than 100 µM in data set [3] (Elastase IC50) and 0.091 µM in [7] (Cathepsin G IC50). Further, the “Thrombin at 100 μM %” value in [4] stood at 0%. Further, the “Tryptase at 100 μM %” value in data set [5] is on record as 0%. In addition, the “Urokinase at 100 μM %” value in [6] is reported as 5.4%. Moreover, the “Chymotrypsin at 100 μM %” value in [8] was 1.8%. In addition, the “FXa at 100 μM %” value in [9] stood at 2.4%.
